Source: patent publication US11434240B2, “TYK2 inhibitors and uses thereof” (Nimbus Lakshmi, Inc., priority 2015, dated 2022)
One block for each molecule: values may come before it.

How the values were obtained:
[1] = test system: JAK2-pSTAT5 (GM-CSF induced pSTAT5); assay: GM-CSF induced pSTAT5 in human PBMC; format: cell-based; conditions: 20 min, 5 ng/mL GM-CSF for 20 minutes, legend words it as IC50
Procedure: (§1) Human PBMC are isolated from buffy coat and are stored frozen for assays as needed. Cells for assay are thawed and resuspended in complete media containing serum, then cells are diluted to 1.67 E6 cells/ml so that 120 ul per well is 200,000 cells. 15 ul of compound or DMSO is added to the well at the desired concentrations and incubated at 1 hr at 37 C. 15 ul of stimulus (final concentration of 1.7 ng/mL IL-12) is added for 30 minutes prior to pSTAT4 and total STAT4 analysis using cell lysates prepared and analyzed by MSD reagents as per manufacturer protocol. The final DMSO concentration of compound in the assay is 0.1%.
Cells are prepared for analysis as in the above procedure and 15 ul of GM-CSF (final concentration 5 ng/mL) is added for 20 minutes prior to pSTAT5 and total STAT5 analysis using cell lysates prepared and analyzed by MSD reagents as per manufacturer protocol. The final DMSO concentration of compound in the assay is 0.1%.

JAK2 (Invitrogen) kinase = JAK2 (Invitrogen) kinase (Homo sapiens (Human), UniProt O60674); assay: JAK2 radioactive kinase assay; format: biochemical; conditions: ATP at 10 μM
Procedure: Peptide substrate, [KKSRGDYMTMQIG], (20 μM) is prepared in reaction buffer (20 mM Hepes pH 7.5, 10 mM MgCl2, 1 mM EGTA, 0.02% Brij35, 0.02 mg/mL BSA, 0.1 mM […], 2 mM DTT, 1% DMSO. TYK2 (Invitrogen) kinase is added, followed by compounds in DMSO. ^33PATP is added to initiate the reaction with ATP at 10 μM. Kinase reaction is incubated for 120 min at room temp and reactions are spotted onto P81 ion exchange paper (Whatman #3698-915), and then washed extensively in 0.75% phosphoric acid, prior to reading the radioactivity counts. For JAK2 (Invitrogen) kinase assay the peptide substrate poly[Glu:Tyr](4:1), 0.2 mg/ml is used, in the reaction carried out the same as for TYK2.

[2] = test system: Tyk2-pSTAT4 (IL-12 induced pSTAT4); assay: IL-12 induced pSTAT4 in human PBMC; format: cell-based; conditions: 0.5 h, 1.7 ng/mL IL-12 for 30 minutes, legend words it as IC50
Procedure: as §1

JAK2 (Invitrogen) kinase, sequence (O60674 whole entry): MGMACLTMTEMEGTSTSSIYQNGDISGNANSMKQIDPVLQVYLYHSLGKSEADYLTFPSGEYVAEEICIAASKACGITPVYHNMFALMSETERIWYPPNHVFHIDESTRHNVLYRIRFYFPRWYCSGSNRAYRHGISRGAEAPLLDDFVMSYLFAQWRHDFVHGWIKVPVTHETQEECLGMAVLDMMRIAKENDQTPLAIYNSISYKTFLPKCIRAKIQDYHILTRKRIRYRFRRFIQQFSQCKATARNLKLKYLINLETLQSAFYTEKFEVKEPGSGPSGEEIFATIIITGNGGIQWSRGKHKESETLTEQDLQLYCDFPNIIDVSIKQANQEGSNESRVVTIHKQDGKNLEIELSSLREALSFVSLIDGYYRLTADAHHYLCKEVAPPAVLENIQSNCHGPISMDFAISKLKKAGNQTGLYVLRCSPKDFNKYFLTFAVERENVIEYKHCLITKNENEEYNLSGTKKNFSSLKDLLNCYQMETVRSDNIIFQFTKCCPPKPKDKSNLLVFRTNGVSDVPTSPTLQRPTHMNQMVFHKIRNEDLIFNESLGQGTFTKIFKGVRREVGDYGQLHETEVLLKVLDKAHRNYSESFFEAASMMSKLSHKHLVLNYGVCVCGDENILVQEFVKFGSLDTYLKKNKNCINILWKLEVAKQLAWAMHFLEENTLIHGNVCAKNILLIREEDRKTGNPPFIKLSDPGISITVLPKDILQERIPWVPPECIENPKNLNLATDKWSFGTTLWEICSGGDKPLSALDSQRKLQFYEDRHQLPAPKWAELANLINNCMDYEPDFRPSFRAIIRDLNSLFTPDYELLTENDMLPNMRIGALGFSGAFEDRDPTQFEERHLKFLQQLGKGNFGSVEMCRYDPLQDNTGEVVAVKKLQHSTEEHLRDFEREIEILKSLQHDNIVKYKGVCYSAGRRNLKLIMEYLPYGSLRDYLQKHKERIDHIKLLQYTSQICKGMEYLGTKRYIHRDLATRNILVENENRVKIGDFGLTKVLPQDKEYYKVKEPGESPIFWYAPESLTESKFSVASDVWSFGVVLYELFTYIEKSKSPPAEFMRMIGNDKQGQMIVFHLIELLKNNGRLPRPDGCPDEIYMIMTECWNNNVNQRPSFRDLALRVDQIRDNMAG

SMILES: CN1CCN(c2ccn(-c3cc(-c4c(F)cccc4F)nc4c3C(=O)NC4)n2)CC1 [I-5, 2-(2,6-difluorophenyl)-4-(3-(4-methylpiperazin-1-yl)-1H-pyrazol-1-yl)-6,7-dihydro-5H-pyrrolo[3,4-b]pyridin-5-one]
EC50 [1]: > 2000 nM

Ki (JAK2 (Invitrogen) kinase): 0.1 to 10 nM
SMILES: CO[C@@H]1CN(c2ccn(-c3cc(-c4c(F)cccc4C#N)nc4c3C(=O)NC4)n2)C[C@@H]1O [I-154, 3-fluoro-2-(4-(3-((3S,4R)-3-hydroxy-4-methoxypyrrolidin-1-yl)-1H-pyrazol-1-yl)-5-oxo-6,7-dihydro-5H-pyrrolo[3,4-b]pyridin-2-yl)benzonitrile]

EC50 ([1]; Homo sapiens, PBMC): 100 to 2000 nM
EC50 [2]: 100 to 2000 nM
SMILES: N#Cc1cccc(F)c1-c1cc(-n2ccc(N3CCC(N4CCOCC4)CC3)n2)c2c(n1)CNC2=O [I-59, 3-fluoro-2-(4-(3-(4-morpholinopiperidin-1-yl)-1H-pyrazol-1-yl)-5-oxo-6,7-dihydro-5H-pyrrolo[3,4-b]pyridin-2-yl)benzonitrile]
